Assay: Intraperitoneal administration to intact rats: accumulation of metals in liver and kidney tissues
Type: in vivo
Details: day 1 and day 7 after drug withdrawal, 3750 μg of zinc per kg intraperitoneally, 7 injections
Description: Animals are placed in cages, 4 per cage, with free access to food/water. […] Administration is performed every other day, in the amount of 7 injections per animal (intraperitoneal method of drug administration). […] After the last injection, a half of the animals are maintained on hunger (for 12 hours) with free access to water. Upon expiration of this time period, the animals are taken out of the experiment. The second half of the animals continues to have free access to food/water for a further 7 days. On day 6 after the last injection, the animals are maintained on hunger (for 12 hours) with free access to water. Upon expiration of this time period, the animals are taken out of the experiment.
The total kidney, liver and muscle homogenates were prepared as follows. Organ excision and homogenization were carried out at a temperature of 1-4° C. […] The volume of the used buffer in ml was 5 times larger than the mass of isolated organs in grams. The isolated liver was perfused with chilled saline (0.9% NaCl) via the portal vein using a syringe. The minced liver was transferred to a homogenizer with a finely ground Teflon pestle and homogenized in chilled buffer. An isolated pair of kidneys was perfused with chilled saline, released from adipose tissue and minced with scissors. […]

## CC(=O)[O-].CC(=O)[O-].[Zn+2] [Zn acetate, Zinc acetate]
  Zinc level in liver and kidney tissues: significantly increased
